The subject of assay [1] is MDA-MB-231 cells. The assay is described as follows: CCK assay, proliferation of breast cancer cells. The class given is cell-based, human. To be noted: MDA-MB-231, 0.1 to 16 µM, 48 hours, absorbance at 450 nm, FIG. 1. The protocol: Human breast cancer cell line MDA-MB-231 cells were plated in a 96-well plate at a density of 1 x 10^5 cells/well and cultured for 24 hours. Thereafter, the cells were treated with compound AON-MG23 of the present invention at various concentrations and cultured for 48 hours. The cells were treated with the compound of the present invention at various concentrations of 0 µM, 0.1 µM, 0.25 µM, 0.5 µM, 1 µM, 2 µM, 4 µM, 8 µM, and 16 µM. 10 µL of cell counting kit (CCK) reagent was added and allowed to react for one hour, and then the absorbance was measured at 450 nm.

The subject of assay [2] is six breast cancer cell lines (SUM149, BCX010, BT20, MDA-MB-231-LM3, CAL51, PyMT-N). Briefly: colony formation test. The format is cell-based, human. The conditions noted are these: 0.25 µM, 0.5 µM and 1 µM, 11 to 14 days, all six cell lines, FIGS. 2A to 2C. The protocol: To confirm the proliferation inhibitory effect of the compound of the present invention on breast cancer cells, a colony formation test was conducted. Specifically, six breast cancer cell lines (SUM149, BCX010, BT20, MDA-MB-231-LM3, CAL51, PyMT-N) were plated in a 6-well cell culture plate at a density of 250 or 1,000 cells per well. On the next day, the cell culture medium was removed and replaced with a cell culture medium containing compound AON-MG23 of the present invention at concentrations of 0 µM, 0.25 µM, 0.5 µM, and 1 µM. After culturing the cells for 11 to 14 days, the resulting cell colonies were stained and photographed, and then the cell colonies were counted and analyzed using Image J software.

The subject of assay [3] is MDA-MB-231. Briefly: Matrigel invasion assay (Transwell membrane insert), 24 hours. The class given is cell-based, human. To be noted: 0.5 µM and 1 µM, reduction dependent on concentration, FIG. 8. The procedure: Breast cancer cell line MDA-MB-231 was seeded at a density of 6 x 10^4 cells/well on top of a membrane filter coated with Matrigel(Transwell membrane insert, Corning). Thereafter, the cells were treated with compound AON-MG23 of the present invention at concentrations of 0 µM (DMSO), 0.5 µM, and 1 µM, and cultured in a CO2 incubator at 37 °C for 24 hours. After 24 hours of culture, the cells on the bottom surface of the membrane filter were stained and photographed under a microscope, and counted and analyzed using Image J software.

Assay [4] deals with MDA-MB-231 cells. The assay is described as follows: cell migration assay in SPLScar Block plates. The class given is cell-based. To be noted: Homo sapiens, 24 hours, FIG. 4, read-out: inhibition of migration of MDA-MB-231 cells compared to the control group. The procedure:
Human breast cancer cell line MDA-MB-231 cells were seeded in SPLScar Block plates (SPL LIFE SCIENCES) at a density of 7 x 10^4/well and cultured for 24 hours. […], the blocks were removed, and at the same time, compound AON-MG23 of the present invention was applied at various concentrations. Thereafter, cells were cultured in a CO2 incubator at 37 °C for 24 hours. The cells were treated with the compound of the present invention at various concentrations of 0 µM, 0.5 µM, 1 µM, 2 µM, and 4 µM. Photographs were taken before and after each culture, and the migration distance of the cells was measured using Image J software. Based on the results, the inhibition of the cell migration was analyzed.

The subject of assay [5] is MDA MB-231 cells. Briefly: Matrigel invasion assay (Transwell invasion chamber), 20 hours. To be noted: 0.5, 1, 2, 4 µM, FIG. 7. The class given is cell-based, human. The protocol: Human breast cancer cell line MDA MB-231 cells were seeded at a density of 6 x 10^4 cells/well on top of a filter coated with Matrigel (Transwell invasion chamber, Corning), treated with compound AON-MG23 of the present invention (0, 0.5, 1, 2, 4 µM), and cultured in a CO2 in an incubator at 37 °C for 20 hours. After culture, cell fixation and staining were performed using the Diff-Quick stain Kit (Sysmex, Kobe, Japan). The stained cells were imaged under a microscope, and the cells were counted and statistically analyzed using Image J software.

The test system of assay [6] is HCC1806. Briefly: SRB assay with Bliss synergy scoring, combination with paclitaxel. The class given is cell-based, human. The conditions noted are these: AON-MG23 combined with paclitaxel, HCC1806, five days co-treatment, score > 0 indicates a synergistic effect, FIG. 10B. The protocol: (§1) The combination effect of compound AON-MG23 of the present invention was confirmed using Bliss scoring based on the results of the sulforhodamine B assay (SRB assay). Specifically, human breast cancer cell lines SUM149 and HCC1806 were plated in a 96-well cell culture plate at a density of 1 x 10^3 cells/well. On the next day, paclitaxel, the drug to be tested for the combination effect with compound AON-MG23 of the present invention, was diluted to concentrations for testing, and cells were cultured for 24 hours. After carefully removing the cell culture medium, the cells were co-treated with AON-MG23 and paclitaxel at different concentrations and cultured for five days. […] The absorbance of the dissolved solution was measured at […] using a plate reader. The measured absorbance values were compared to the control group, converted into percentages, and saved in an Excel file format. […] The presence of a synergistic effect was evaluated according to the following criteria based on relevant literature (Bliss, C. I. (1939). The toxicity of poisons applied jointly. Annals of Applied Biology, 26(3), 585-615.): a score > 0 indicates a synergistic effect; a score = 0 indicates an independent effect; and a score < 0 indicates an antagonistic effect.

For assay [7], the system named is SUM149. The assay is described as above. The format is cell-based, human. The conditions noted are these: AON-MG23 combined with paclitaxel, SUM149, five days co-treatment, score > 0 indicates a synergistic effect, FIG. 10A. The procedure: as §1
The subject of assay [8] is MDA-MG231-LM3 cells. Briefly: Transwell membrane filter migration assay. To be noted: cells pre-treated with 0.5 µM, eight hours, FIG. 6. The class given is cell-based, human. The protocol: Breast cancer cell line MDA-MG231-LM3 cells pre-treated with 0.5 µM of compound AON-MG23 of the present invention and cells that were not treated were prepared. […] The membrane filter seeded with the cells was placed into a 24-well plate supplemented with a cell culture medium containing fetal bovine serum and cultured for eight hours in an incubator at 37°C and 5% CO2. Cells that migrated to the bottom surface of the membrane filter were stained and photographed under a microscope, and counted and analyzed using Image J software.

In assay [9] the test system is four breast cancer cell lines (SUM149, BCX010, BT20, MDA-MB-231-LM3). Briefly: soft agar assay (tumorigenicity). The class given is cell-based. The conditions noted are these: Homo sapiens, 336 h, 100 nM, 500 nM, 1000 nM tested, two weeks, FIGS. 3A and 3B, read-out: concentration from which tumorigenicity was inhibited. The protocol:
To confirm the tumorigenicity inhibitory effect of the compound of the present invention on breast cancer cells, an […] soft agar assay was performed. Specifically, 0.5% agar or 0.7% agar was added to cell culture media diluted with the compound of the present invention at concentrations of 0 nM, 100 nM, 500 nM, and 1000 nM. 2 ml of 0.5% agar containing the compound of the present invention at various concentrations was added to a 6-well cell culture plate and solidified at room temperature. Thereafter, 1 ml of 1 x 10^4 cells of four breast cancer cell lines (SUM149, BCX010, BT20, MDA-MB-231-LM3) and 1 ml of 0.7% agar containing the compound of the present invention at various concentrations were mixed in a 1:1 ratio to prepare a 0.35% solution, and 2 ml of this solution was placed on top of the solidified 0.5% agar. The mixture was then solidified at room temperature until the upper layer was fixed, and then cells were cultured in an incubator at 37 °C and 5% CO2 for two weeks. The formed cell clones were stained and photographed, and then the cell clones were counted and analyzed using Image J software.

From patent EP4813376A1, “PHARMACEUTICAL COMPOSITION FOR PREVENTION OR TREATMENT OF BREAST CANCER” (Astrion Inc., priority 2023, dated 2025) come the findings set out here.

For the compound `COc1cc(N2CCC(N(C)C)CC2)ccc1Nc1ncc(Cl)c(Nc2ccccc2N(C2CC2)S(C)(=O)=O)n1` [AON-MG23, N-(2-((5-chloro-2-((4-(4-(dimethylamino)piperidin-1-yl)-2-methoxyphenyl)amino)pyrimidin-4-yl)amino)phenyl)-N-cyclopropylmethanesulfonamide], the “proliferation of breast cancer cells” value in [1] is given as “inhibited”. The cell colony formation result in [2] was “inhibited”. The “degree of penetration into Matrigel compared to the untreated control group” value in assay [3] and in assay [5] was “reduced degree of penetration into Matrigel” throughout. The inhibition at 0.5 µM in assay [4] amounted to 50%. Besides, the Bliss synergy scoring amounted to 9.249 points in assay [6] and 18.743 points in assay [7]. In assay [8], the “cell migration compared to the untreated group” value was “inhibited”. Moreover, in assay [9], the minimal effective concentration was no less than 0.1 µM.
